In patent US20070105940A1, “Method for treating pain” (ALLERGAN, INC., priority 2005, published 2007):
Like-named read-outs stand apart in the source and are kept apart here.

How the values were obtained:
TRPV1 channels [1] = biological target: T1, TRPV1 channels (Homo sapiens, UniProt Q8NER1); assay: Blocking of TRPV1 channel activation by capsaicin; format: cell-based; conditions: capsaicin 100 nM; FIG. 1A; read-out: IC50 against capsaicin
[2] = system: nociceptive response to formalin injected into the rat paw; assay: Nociceptive response to formalin injected into the rat paw; format: in vivo
[3] = system: chronic constrictory injury (CCI) of the sciatic nerve; assay: CCI neuropathic pain, thermal nociceptive response (Plantar Test, paw withdrawal latency); format: in vivo, rat; conditions: CCI rats, i.p. for 7 days; AA-5-HT 5 mg/kg, URB-597 3 mg/kg; FIG. 4
Method: (§1) Neuropathic pain was induced by chronic constrictory injury (CCI) of the sciatic nerve. Rats were anaesthetized with sodium pentobarbital (60 mg/kg i.p.), the right sciatic nerve was exposed and four ligatures were loosely tied around the nerve just proximal to the trifurcation. Control rats underwent a sham surgery with exposure of the sciatic nerve without ligature.
(§2) Changes in thermal and mechanical nociceptive responses have been evaluated using a Plantar Test Apparatus and Dynamic Plantar Anaesthesiometer (Ugo Basile, Varese, Italy). Thermal paw withdrawal latency and mechanical paw withdrawal threshold (PWL and PWT) were measured (in sec and grams, respectively) for each group of rats every 30 min for 3 h.

anandamide levels = assay: Anandamide levels in the periaqueductal grey after intra-PAG injection; format: in vivo; conditions: 4 μg/rat intra-PAG, measured 20 min following injection
[4] = system: chronic constrictory injury (CCI) of the sciatic nerve; assay: CCI neuropathic pain, mechanical allodynia (Dynamic Plantar Anaesthesiometer, paw withdrawal threshold); format: in vivo, rat; conditions: CCI rats, i.p. for 7 days; AA-5-HT 5 mg/kg, URB-597 3 mg/kg; FIG. 3
Method: as §1, §2

[5] = system: OFF cells of the rostral ventromedial medulla; assay: Inhibitory effect of formalin on OFF cells of the rostral ventromedial medulla; format: in vivo, rat; conditions: FIG. 2B
[6] = system: fatty acid amide hydrolase (FAAH); assay: FAAH inhibition in vitro; format: biochemical
From the text: Similar results were obtained with other congeners, provided that at least one double bond was present in the acyl chain.

TRPV1 channels [7] = biological target: T1, TRPV1 channels; conditions: read-out: IC50 against capsaicin, previously reported; cited from earlier work

T1 sequence (Q8NER1 whole entry): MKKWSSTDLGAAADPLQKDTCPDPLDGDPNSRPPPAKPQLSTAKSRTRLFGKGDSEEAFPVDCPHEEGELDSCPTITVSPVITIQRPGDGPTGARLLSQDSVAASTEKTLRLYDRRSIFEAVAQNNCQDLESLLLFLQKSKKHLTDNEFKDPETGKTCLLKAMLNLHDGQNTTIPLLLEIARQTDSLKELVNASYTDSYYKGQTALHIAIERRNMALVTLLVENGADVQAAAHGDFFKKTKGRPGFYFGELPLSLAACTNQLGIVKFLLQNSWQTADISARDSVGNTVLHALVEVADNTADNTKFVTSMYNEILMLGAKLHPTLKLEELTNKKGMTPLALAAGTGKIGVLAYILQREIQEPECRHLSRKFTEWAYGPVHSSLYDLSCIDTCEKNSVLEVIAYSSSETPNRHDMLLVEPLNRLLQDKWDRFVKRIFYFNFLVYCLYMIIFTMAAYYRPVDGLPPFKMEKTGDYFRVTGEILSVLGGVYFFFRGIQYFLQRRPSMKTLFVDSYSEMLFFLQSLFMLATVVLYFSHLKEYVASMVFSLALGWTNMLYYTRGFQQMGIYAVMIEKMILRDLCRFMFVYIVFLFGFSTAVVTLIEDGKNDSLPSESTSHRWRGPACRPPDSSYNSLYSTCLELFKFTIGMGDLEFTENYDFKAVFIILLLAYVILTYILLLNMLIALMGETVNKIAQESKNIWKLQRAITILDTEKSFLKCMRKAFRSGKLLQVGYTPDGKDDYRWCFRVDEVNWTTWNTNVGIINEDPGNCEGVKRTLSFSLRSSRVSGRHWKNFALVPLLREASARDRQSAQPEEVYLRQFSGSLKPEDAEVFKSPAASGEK

Compound | IC50 (TRPV1 channels [1]) [nM] | nociceptive response to formalin ([2]; 4 μg/rat injected into the periaqueductal grey (PAG), FIG. 2A) | nocifensive response to formalin ([2]; 1 mg/rat, s.c., injected into the paw) | thermal nociceptive responses [3] | anandamide levels in the PAG (anandamide levels) | mechanical allodynia [4] | inhibitory effect of formalin on the OFF cells of the rostral ventromedial medulla ([5]; supraspinal level) | type of FAAH inhibition [6] | less potent than URB-597 at inhibiting FAAH ([6]; in vitro) [fold] | effect on the anti-hyperalgesic effect of AA-5-HT ([2]; AA-5-HT 4 μg/rat intra-PAG, AM251 (nmol/rat), capsazepine 6 nmol/rat) | effect on the action of AA-5-HT injected into the paw ([2]; AA-5-HT 1 mg/rat s.c. into the paw) | IC50 (TRPV1 channels [7]) [nM] | effect on the action of AA-5-HT on OFF cells [5]
CCCCC/C=C\C/C=C\C/C=C\C/C=C\CCCC(=O)NCCc1c[nH]c2ccc(O)cc12 [AA-5-HT, N-arachidonoyl-serotonin] | 130 | potently inhibited both phases | selectively blocked the 2nd, inflammatory phase | as efficacious as URB-597 | elevated | totally abolished | blocking the inhibitory effect of formalin | mixed inhibitors | 100 | – | – | – | –
NC(=O)c1cccc(-c2cccc(OC(=O)NC3CCCCC3)c2)c1 [URB-597, reference compound] | – | – | – | reducing thermal nociceptive responses | – | ineffective | – | – | – | – | – | – | –
Oc1cc2c(cc1O)CN(C(=S)NCCc1ccc(Cl)cc1)CCC2 [capsazepine, reference compound] | – | – | – | – | – | – | – | – | – | occluded | occluded | 60 | occluded
